Results as given in patent US8758988B2, “Cryopreservation of articular cartilage” (The Governors of the University of Alberta, priority 2009, dated 2014).
Like-named read-outs stand apart in the source and are kept apart here.

Key:
[1] = Arrhenius fit of CPA diffusion coefficients (constants and activation energies); format: physicochemical; conditions: for Ea (activation energy) / Dcwo (Arrhenius constant): Table (1), Arrhenius fit of diffusion coefficients; for Dcwo (Arrhenius constant): R = 0.001986 Kcal/(mol. K)
Description: Full thickness AC (on 5-10 mm bone base) is harvested from the sample tissue using a hand-held coring device and held at 4° C. in 1× Dulbecco's phosphate-buffered saline (PBS) solution (pH 7.1) (Gibco Invitrogen, Carlsbad, Calif.). Each osteochondral dowel (OCD) is assigned to one of four CPA treatment groups [DMSO, PG, EG, glycerol (all at 6.5M, in 1×PBS)] and one of 11 incubation times (1 second, 1, 2, 5, 10, 15, 30, 60, 120, 180 minutes, 24 hours), as well as one of three temperatures (4, 22, 37° C.). Each combination of treatment, time, and temperature is repeated at least three times.
The tissue sample is isolated by scalpel and the tissue returned to 1×PBS for 5 min, then blotted lightly using Kimwipes® tissue (Kimberly-Clark, Roswell, Ga.) to remove excess fluid from the sample surface, weighed (W1), and immediately immersed in 5 ml of CPA solution for the specified incubation time at the specified temperature. After incubation, the sample is removed from the solution, blotted lightly and weighed for a second time (W2). The sample is then placed into a 35×10 mm cell culture dish (Corning Inc., Corning, N.Y.) containing 4 mL of 1×PBS, fully immersed in the PBS and the dish sealed with Parafilm® (American National Can, Chicago, Ill.) and held for 24 h at 22° C. under dark conditions to allow the CPA within the AC disc to fully equilibrate with the surrounding PBS solution. After 24 h, the CPA/PBS solution is mixed using a pipettor and a 1 mL sample is taken into a 1.5 mL microcentrifuge tube (Thermo Fisher Scientific, Waltham, Mass.). From this sample, 50 μL is placed into a μOSMETTE™ micro-osmometer (Precision Systems, Natick, Mass.) to determine its osmolality (Osm).
The values of the diffusion coefficients for the single CPA diffusion in water were used in the calculations. The values of the diffusion coefficients were calculated before, by fitting Fick's law to the experimental data, as explained in the preceding section of this patent labeled “Permeation Kinetics of CPAs in AC matrix”.
[formula] at x=0, and CCPA=C* at x=THK, where C* is the concentration of the CPA in the external bath at each step of the protocol. The temperature dependence of the diffusion coefficients was calculated by fitting an Arrhenius equation to the values of diffusion coefficients obtained for each CPA at 3 different temperatures as in the preceding section of this patent labeled “Permeation Kinetics of CPAs in AC matrix”. The values of diffusion coefficients were taken from Jomha et al (N M Jomha, G K Law, A Abazari, K Rekieh, J A W Elliott, L E McGann. Permeation of several cryoprotectant agents into porcine articular cartilage. Cryobiology 58(1), 110-114, 2009). For F (formamide), 2 values for diffusion coefficients of formamide in water at 2 different temperatures were extracted from the literature:
Then, these values were fitted to an Arrhenius equation to calculate the constant and activation energy for formamide. As an example, the increase in the minimum DMSO concentration in cartilage, diffusing from a bath of 3 M DMSO solution, at −10° C., was calculated by solving Eqn. (8) as the following:
First, the diffusion coefficient of DMSO in water at −10° C. was calculated from the results of the Arrhenius fit in Table (1). DDMSO(at T=−10° C.=263 K)=298.95×10^−9×exp(−3.9/0.001986/263)=1.71×10^−10 m^2/s

[2] = formamide in water, cited from earlier work

| diffusion coefficient of DMSO in water ([1]; at T=−10° C.=263 K, calculated from the Arrhenius fit in Table (1)) | SMILES | Ea (activation energy) [1] [kcal/mol] | Dcwo (Arrhenius constant) [1] | Diffusion coefficient (m^2/s) ([2]; Temperature 278.2 K) | Diffusion coefficient (m^2/s) ([2]; Temperature 298.15 K) |
| --- | --- | --- | --- | --- | --- |
| 1.71×10^−10 m^2/s | C[S+](C)[O-] [D (DMSO), dimethyl sulfoxide] | 3.9 | 298.95 ×10^−9 m^2/s |  |  |
|  | NC=O [F (Form), formamide] | 4.198 | 1903.510 ×10^−9 m^2/s | 0.95 × 10^−9 m^2/s | 1.58 × 10^−9 m^2/s |
|  | CC(O)CO (stereo not shown) [P (PG), propylene glycol] | 6.63 | 16971.0 ×10^−9 m^2/s |  |  |
|  | OCC(O)CO [G (Gly), glycerol] | 5.6 | 208.03 ×10^−9 m^2/s |  |  |
|  | OCCO [E (EG), ethylene glycol] | 3.8 | 183.30 ×10^−9 m^2/s |  |  |
